Source: US20100227887A1 (priority 2009, published 2010)

What was measured:
human mGlu 5a receptor = target: T1, human mGlu 5a receptor (Homo sapiens, UniProt P41594); experiment: [3H]MPEP competition binding on membranes of EBNA cells transfected with human mGlu 5a receptor; conditions: [3H]MPEP (2 nM) competition, 1 h at 4° C., EBNA cell membranes
T1 construct: expressed in transfected cells; host or cells: EBNA cells (transient transfection); cell membrane homogenates
Description: The pharmacological activity of the compounds was tested using the following method: For binding experiments, cDNA encoding human mGlu 5a receptor was transiently transfected into EBNA cells using a procedure described by Schlaeger and Christensen [Cytotechnology 15:1-13 (1998)]. Cell membrane homogenates were stored at −80° C. until the day of assay where upon they were thawed and resuspended and polytronised in 15 mM Tris-HCl, 120 mM NaCl, 100 mM KCl, 25 mM CaCl2, 25 mM MgCl2 binding buffer at pH 7.4 to a final assay concentration of 20 μg protein/well.
Saturation isotherms were determined by addition of twelve [^3H]MPEP concentrations (0.04-100 nM) to these membranes (in a total volume of 200 μl) for 1 h at 4° C. Competition experiments were performed with a fixed concentration of [^3H]MPEP (2 nM) and IC50 values of test compounds evaluated using 11 concentrations (0.3-10,000 nM). Incubations were performed for 1 h at 4° C.
At the end of the incubation, membranes were filtered onto unifilter (96-well white microplate with bonded GF/C filter preincubated 1 h in 0.1% PEI in wash buffer, Packard Bio-Science, Meriden, Conn.) with a Filtermate 96 harvester (Packard BioScience) and washed 3 times with cold 50 mM Tris-HCl, pH 7.4 buffer. Nonspecific binding was measured in the presence of 10 μM MPEP. The radioactivity on the filter was counted (3 min) on a Packard Top-count microplate scintillation counter with quenching correction after addition of 45 μl of microscint 40 (Canberra Packard S. A., Zürich, Switzerland) and shaking for 20 min.
For binding experiments the Ki values of the compounds tested are given. The Ki value is defined by the following formula: […]
in which the IC50 values are those concentrations of the compounds tested which cause 50% inhibition of the competing radioligand ([^3H]MPEP). L is the concentration of radioligand used in the binding experiment and the Kd value of the radioligand is empirically determined for each batch of membranes prepared.

T1 sequence (P41594 21-1180 isoform P41594-2 limits assumed): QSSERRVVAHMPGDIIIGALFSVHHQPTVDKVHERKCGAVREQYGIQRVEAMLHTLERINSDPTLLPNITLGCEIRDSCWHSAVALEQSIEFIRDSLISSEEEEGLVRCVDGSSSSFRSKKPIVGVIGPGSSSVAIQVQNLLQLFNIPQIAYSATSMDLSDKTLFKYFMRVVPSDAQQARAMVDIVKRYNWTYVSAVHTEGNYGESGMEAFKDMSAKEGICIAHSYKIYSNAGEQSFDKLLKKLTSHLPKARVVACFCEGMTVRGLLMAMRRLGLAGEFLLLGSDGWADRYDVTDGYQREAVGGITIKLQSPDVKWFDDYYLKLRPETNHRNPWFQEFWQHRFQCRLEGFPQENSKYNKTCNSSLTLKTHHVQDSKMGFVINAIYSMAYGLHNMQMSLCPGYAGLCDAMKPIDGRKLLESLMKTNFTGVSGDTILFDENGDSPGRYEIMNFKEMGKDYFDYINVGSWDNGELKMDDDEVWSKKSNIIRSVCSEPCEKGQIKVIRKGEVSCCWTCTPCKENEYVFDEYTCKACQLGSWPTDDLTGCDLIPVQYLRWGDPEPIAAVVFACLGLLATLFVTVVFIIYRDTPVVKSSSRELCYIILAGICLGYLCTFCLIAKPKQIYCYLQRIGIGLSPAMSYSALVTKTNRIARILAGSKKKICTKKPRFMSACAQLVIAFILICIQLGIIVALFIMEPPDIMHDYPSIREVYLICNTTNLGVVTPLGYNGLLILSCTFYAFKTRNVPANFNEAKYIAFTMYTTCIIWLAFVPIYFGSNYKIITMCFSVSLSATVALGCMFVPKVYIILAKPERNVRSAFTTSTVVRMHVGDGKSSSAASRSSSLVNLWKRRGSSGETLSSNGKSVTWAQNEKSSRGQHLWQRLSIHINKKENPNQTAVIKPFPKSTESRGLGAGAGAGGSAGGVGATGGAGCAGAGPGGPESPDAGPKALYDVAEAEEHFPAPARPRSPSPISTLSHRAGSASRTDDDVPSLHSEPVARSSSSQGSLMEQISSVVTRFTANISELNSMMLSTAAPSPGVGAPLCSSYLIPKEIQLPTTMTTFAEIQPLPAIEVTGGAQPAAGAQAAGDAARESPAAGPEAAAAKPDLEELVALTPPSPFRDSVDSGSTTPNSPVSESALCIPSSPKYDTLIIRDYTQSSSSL

melting point | Ki (human mGlu 5a receptor) | SMILES
222 °C | 0.057 µM | Cc1cc(C#N)cc(C(=O)Nc2ccc(F)c(C)n2)n1 [Example 11]
232.5 °C | 0.111 µM | N#Cc1cc(CO)nc(C(=O)Nc2ccc(F)cn2)c1 [Example 46, 4-Cyano-6-hydroxymethyl-pyridine-2-carboxylic acid (5-fluoro-pyridin-2-yl)-amide]
204.5 °C | 0.006 µM | Cc1cc(C#N)cc(C(=O)Nc2ccc(F)cn2)n1 [Example 4, 4-Cyano-6-methyl-pyridine-2-carboxylic acid (5-fluoro-pyridin-2-yl)-amide]
123.5 °C |  | CCc1cc(Br)cc(C(=O)Nc2ccc(F)cn2)n1 [Example 21, 4-Bromo-6-ethyl-pyridine-2-carboxylic acid (5-fluoro-pyridin-2-yl)-amide]
246.5 °C | 0.033 µM | Cc1cc(C#N)cc(C(=O)Nc2ccnc(F)c2)n1 [Example 48, 4-Cyano-6-methyl-pyridine-2-carboxylic acid (2-fluoro-pyridin-4-yl)-amide]
186.5 °C | 0.139 µM | N#Cc1cc(C(=O)Nc2ccc(F)cn2)nc(C(F)(F)F)c1 [Example 16, 4-Cyano-6-trifluoromethyl-pyridine-2-carboxylic acid (5-fluoro-pyridin-2-yl)-amide]
222.5 °C | 0.008 µM | Cc1cc(C#N)cc(C(=O)Nc2cccc(Cl)n2)n1 [Example 23, 4-Cyano-6-methyl-pyridine-2-carboxylic acid (6-chloro-pyridin-2-yl)-amide]
167 °C | 0.042 µM | Cc1cc(C#N)cc(C(=O)Nc2cccc(C(F)(F)F)c2)n1 [Example 44, 4-Cyano-6-methyl-pyridine-2-carboxylic acid (3-trifluoromethyl-phenyl)-amide]
183.5 °C | 0.011 µM | CCc1cc(C#N)cc(C(=O)Nc2ccc(F)cn2)n1 [Example 25, 4-Cyano-6-ethyl-pyridine-2-carboxylic acid (5-fluoro-pyridin-2-yl)-amide]
279 °C | 0.109 µM | Cc1cc(C#N)cc(C(=O)Nc2ccc(C#N)cn2)n1 [Example 6, 4-Cyano-6-methyl-pyridine-2-carboxylic acid (5-cyano-pyridin-2-yl)-amide]
233.5 °C | 0.008 µM | Cc1cc(C#N)cc(C(=O)Nc2ccc(Cl)cn2)n1 [Example 9, 4-Cyano-6-methyl-pyridine-2-carboxylic acid (5-chloro-pyridin-2-yl)-amide]
196 °C | 0.011 µM | Cc1ccc(NC(=O)c2cc(C#N)cc(C)n2)nc1 [Example 5, 4-Cyano-6-methyl-pyridine-2-carboxylic acid (5-methyl-pyridin-2-yl)-amide]
204 °C | 0.027 µM | Cc1cc(C#N)cc(C(=O)Nc2ccc(F)c(Cl)c2)n1 [Example 38, 4-Cyano-6-methyl-pyridine-2-carboxylic acid (3-chloro-4-fluoro-phenyl)-amide]
208 °C |  | N#Cc1cc(C(=O)Nc2ccc(Cl)cn2)nc(C(F)(F)F)c1 [Example 33, 4-Cyano-6-trifluoromethyl-pyridine-2-carboxylic acid (5-chloro-pyridin-2-yl)-amide]
190.5 °C |  | Cn1ccc(NC(=O)c2cc(C#N)cc(C(F)(F)F)n2)n1 [Example 15, 4-Cyano-6-trifluoromethyl-pyridine-2-carboxylic acid (1-methyl-1H-pyrazol-3-yl)-amide]
189 °C |  | Cc1cc(C#N)cc(C(=O)Nc2ccc(F)cc2)n1 [Example 39, 4-Cyano-6-methyl-pyridine-2-carboxylic acid (4-fluoro-phenyl)-amide]

More lines, now with the values behind:

SMILES | melting point | Ki (human mGlu 5a receptor)
Cc1cc(Cl)cc(C(=O)Nc2ccnc(Cl)c2)n1 [Example 34, 4-Chloro-6-methyl-pyridine-2-carboxylic acid (2-chloro-pyridin-4-yl)-amide] | 221 °C | 
Cc1cc(Cl)cc(C(=O)Nc2ccn(C)n2)n1 [Example 2, 4-Chloro-6-methyl-pyridine-2-carboxylic acid (1-methyl-1H-pyrazol-3-yl)-amide] | 203.5 °C | 0.073 µM
Cc1cc(C#N)cc(C(=O)Nc2ccc(F)c(C)c2)n1 [Example 49, 4-Cyano-6-methyl-pyridine-2-carboxylic acid (4-fluoro-3-methyl-phenyl)-amide] | 177 °C | 0.072 µM
Cc1cc(Cl)cc(C(=O)Nc2ccc(Cl)cn2)n1 [Example 17, 4-Chloro-6-methyl-pyridine-2-carboxylic acid (5-chloro-pyridin-2-yl)-amide] | 151 °C | 
Cc1cc(C#N)cc(C(=O)Nc2nc(C)cs2)n1 [Example 3, 4-Cyano-6-methyl-pyridine-2-carboxylic acid (4-methyl-thiazol-2-yl)-amide] | 211 °C | 0.015 µM
Cc1cc(Cl)cc(C(=O)Nc2nc(C)cs2)n1 [Example 20, 4-Chloro-6-methyl-pyridine-2-carboxylic acid (4-methyl-thiazol-2-yl)-amide] | 176 °C | 0.014 µM
N#Cc1cc(CO)nc(C(=O)Nc2cccc(Cl)c2)c1 [Example 40, 4-Cyano-6-hydroxymethyl-pyridine-2-carboxylic acid (3-chloro-phenyl)-amide] | 167 °C | 0.044 µM
Cc1cc(NC(=O)c2cc(C#N)cc(C)n2)ccn1 [Example 50, 4-Cyano-6-methyl-pyridine-2-carboxylic acid (2-methyl-pyridin-4-yl)-amide] | 302 °C | 0.099 µM
Cc1cc(C#N)c(C)c(C(=O)Nc2ccc(Cl)cn2)n1 [Example 29, 4-Cyano-3,6-dimethyl-pyridine-2-carboxylic acid (5-chloro-pyridin-2-yl)-amide] | 264 °C | 0.097 µM
Cc1cc(Cl)cc(C(=O)Nc2cccc(Cl)n2)n1 [Example 35, 4-Chloro-6-methyl-pyridine-2-carboxylic acid (6-chloro-pyridin-2-yl)-amide] | 176 °C | 0.034 µM
Cc1ccc(NC(=O)c2nc(C)cc(C#N)c2C)nc1 [Example 32, 4-Cyano-3,6-dimethyl-pyridine-2-carboxylic acid (5-methyl-pyridin-2-yl)-amide] | 212.5 °C | 
Cc1cc(C#N)cc(C(=O)Nc2ccnc(Cl)c2)n1 [Example 22, 4-Cyano-6-methyl-pyridine-2-carboxylic acid (2-chloro-pyridin-4-yl)-amide] | 238.5 °C | 0.025 µM
Cc1cc(Cl)cc(C(=O)Nc2cccc(Cl)c2)n1 [Example 37, 4-Chloro-6-methyl-pyridine-2-carboxylic acid (3-chloro-phenyl)-amide] | 174 °C | 0.055 µM
Cc1cc(Cl)cc(C(=O)Nc2cccc(F)c2)n1 [Example 52, 4-Chloro-6-methyl-pyridine-2-carboxylic acid (3-fluoro-phenyl)-amide] | 123 °C | 
Cc1cc(C#N)c(C)c(C(=O)Nc2ccc(F)c(C)n2)n1 [Example 28, 4-Cyano-3,6-dimethyl-pyridine-2-carboxylic acid (5-fluoro-6-methyl-pyridin-2-yl)-amide] | 201 °C | 
Cc1csc(NC(=O)c2nc(C)cc(C#N)c2C)n1 [Example 30, 4-Cyano-3,6-dimethyl-pyridine-2-carboxylic acid (4-methyl-thiazol-2-yl)-amide] | 199.5 °C | 0.037 µM
C#Cc1cc(C)nc(C(=O)Nc2ccn(C)n2)c1 [Example 7, 4-Ethynyl-6-methyl-pyridine-2-carboxylic acid (1-methyl-1H-pyrazol-3-yl)-amide] | 226.5 °C | 0.033 µM
Cc1cc(C#N)cc(C(=O)Nc2cccc(Cl)c2)n1 [Example 26, 4-Cyano-6-methyl-pyridine-2-carboxylic acid (3-chloro-phenyl)-amide] | 147.5 °C | 0.006 µM
Cc1cc(NC(=O)c2cc(Cl)cc(C)n2)ccn1 [Example 53, 4-Chloro-6-methyl-pyridine-2-carboxylic acid (2-methyl-pyridin-4-yl)-amide] | 162 °C | 
Cc1cc(C#N)c(C)c(C(=O)Nc2ccc(C#N)cn2)n1 [Example 31, 4-Cyano-3,6-dimethyl-pyridine-2-carboxylic acid (5-cyano-pyridin-2-yl)-amide] | 216 °C | 
CC(C)c1cc(C#N)cc(C(=O)Nc2ccn(C)n2)n1 [Example 13, 4-Cyano-6-isopropyl-pyridine-2-carboxylic acid (1-methyl-1H-pyrazol-3-yl)-amide] | 174 °C | 
